# According to patent US20250215029A1 (Recludix Pharma, Inc., priority 2022, published 2025):
# Legend:
# [1] = molecular target: T1, Recombinant STAT6 protein (STAT6 (W123-T658)) (Homo sapiens, UniProt P42226); experiment: STAT6 Fluorescence Polarization (FP) Assay; assay type: binding; settings: STAT6 (W123-T658) 250 nM, probe 5-FAM-Ap[…]-NH2 2 nM, 45-minute incubation; read-out: STAT6 (FP assay IC50 class)
# T1 construct: Recombinant STAT6 protein (STAT6 (W123-T658))
# T1 sequence (P42226 123-658): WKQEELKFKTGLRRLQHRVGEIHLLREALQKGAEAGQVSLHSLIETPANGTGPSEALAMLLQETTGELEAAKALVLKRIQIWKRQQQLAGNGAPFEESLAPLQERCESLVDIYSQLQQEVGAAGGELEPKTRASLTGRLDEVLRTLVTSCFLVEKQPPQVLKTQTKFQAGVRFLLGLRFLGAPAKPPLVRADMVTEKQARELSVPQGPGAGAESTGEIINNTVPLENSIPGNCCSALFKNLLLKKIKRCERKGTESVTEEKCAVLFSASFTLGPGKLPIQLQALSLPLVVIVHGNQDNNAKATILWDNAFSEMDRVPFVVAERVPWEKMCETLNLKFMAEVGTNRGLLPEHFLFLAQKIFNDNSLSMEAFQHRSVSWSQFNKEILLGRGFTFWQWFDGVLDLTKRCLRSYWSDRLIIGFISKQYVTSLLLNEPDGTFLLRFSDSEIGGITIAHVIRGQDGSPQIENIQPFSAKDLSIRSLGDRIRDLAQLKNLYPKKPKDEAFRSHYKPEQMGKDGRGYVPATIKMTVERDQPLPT
# Procedure, shortened: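 Displacement of a fluorescent phosphotyrosine peptide (2 nM) from 250 nM STAT6 (W123-T658) is measured by polarization after a 45-minute room-temperature incubation. Compounds are titrated serially at 1% DMSO, and IC50 values derive from regression of mP on log concentration.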
# [2] = molecular target: T2, Recombinant STAT3 protein (STAT3 (G127-I722)) (Homo sapiens, UniProt P40763); experiment: STAT3 Fluorescence Polarization (FP) Assay; assay type: binding; settings: STAT3 (G127-I722) 25 nM, probe 5-FAM-GpYLPQTV-NH2 2 nM, 45-minute incubation; read-out: STAT3 (FP assay IC50 class)
# T2 construct: Recombinant STAT3 protein (STAT3 (G127-I722))
# Procedure, shortened: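 In this competition FP format, STAT3 residues G127-I722 (25 nM) and 2 nM 5-FAM-GpYLPQTV-NH2 met test compounds for 45 min at room temperature. IC50 values result from fitting mP signal against log concentration by nonlinear regression.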
# T2 sequence (P40763 127-722): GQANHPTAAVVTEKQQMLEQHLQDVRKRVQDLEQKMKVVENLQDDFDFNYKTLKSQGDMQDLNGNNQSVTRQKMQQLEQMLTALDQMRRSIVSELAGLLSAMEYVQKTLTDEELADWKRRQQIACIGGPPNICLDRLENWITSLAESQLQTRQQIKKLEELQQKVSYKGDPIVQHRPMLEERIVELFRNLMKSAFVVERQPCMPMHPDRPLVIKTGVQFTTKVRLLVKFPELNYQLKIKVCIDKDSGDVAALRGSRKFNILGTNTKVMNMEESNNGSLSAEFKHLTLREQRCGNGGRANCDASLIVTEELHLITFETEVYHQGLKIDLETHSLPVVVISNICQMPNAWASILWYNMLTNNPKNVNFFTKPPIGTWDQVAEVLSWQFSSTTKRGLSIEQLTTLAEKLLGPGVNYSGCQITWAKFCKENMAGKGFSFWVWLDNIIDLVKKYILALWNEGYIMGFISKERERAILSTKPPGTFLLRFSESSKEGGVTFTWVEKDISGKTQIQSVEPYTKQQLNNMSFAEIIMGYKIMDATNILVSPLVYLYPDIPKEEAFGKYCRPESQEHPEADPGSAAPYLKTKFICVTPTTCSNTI
IC50 [1],IC50 [2],SMILES
0.3 to 3 µM,< 0.1 µM,"O=C(N[C@H]1CCC[C@H]2CC[C@@H](C(=O)N[C@H]3CN(c4ncc[nH]4)C[C@@H]3F)N2C1=O)c1cc2cc([C@H](F)P(=O)(O)O)ccc2s1 [Compound 637, ((R)-fluoro(2-(((3S,6S,9aS)-3-(((3S,4S)-4-fluoro-1-(1H-imidazol-2-yl)pyrrolidin-3-yl)carbamoyl)-5-oxooctahydro-1H-pyrrolo[1,2-a]azepin-6-yl)carbamoyl)benzo [b]thiophen-5-yl)methyl) phosphonic acid]"
3 to 30 µM,< 0.1 µM,"C[C@@H]1C[C@H]2CC[C@@H](C(=O)N3CC(c4cnccc4N(C)C)C3)N2C(=O)[C@@H](NC(=O)c2cc3cc(CP(=O)(O)O)ccc3s2)C1 [Compound 639, ((2-(((3S,6S,8S,9aR)-3-(3-(4-(dimethylamino)pyridin-3-yl)azetidine-1-carbonyl)-8-methyl-5-oxooctahydro-1H-pyrrolo[1,2-a]azepin-6-yl)carbamoyl)benzo [b]thiophen-5-yl)methyl) phosphonic acid]"
0.3 to 3 µM,< 0.1 µM,"C/C1=C/C[C@H](NC(=O)c2cc3cc(C(F)(F)P(=O)(O)O)ccc3s2)C(=O)N2[C@H](CC[C@H]2C(=O)N2CC(c3cnccc3C)C2)C1 [Compound 641, (difluoro(2-(((3S,6S,10aR,Z)-9-methyl-3-(3-(4-methylpyridin-3-yl)azetidine-1-carbonyl)-5-oxo-1,2,3,5,6,7,10,10a-octahydropyrrolo[1,2-a]azocin-6-yl)carbamoyl)benzo [b]thiophen-5-yl)methyl) phosphonic acid]"
3 to 30 µM,0.1 to 1 µM,"C/C1=C/C[C@H](NC(=O)c2cc3cc(CP(=O)(O)O)ccc3s2)C(=O)N2[C@H](CC[C@H]2C(=O)N2CC(c3cnccc3C)C2)C1 [Compound 642, ((2-(((3S,6S,10aR,Z)-9-methyl-3-(3-(4-methylpyridin-3-yl)azetidine-1-carbonyl)-5-oxo-1,2,3,5,6,7,10,10a-octahydropyrrolo[1,2-a]azocin-6-yl)carbamoyl)benzo [b]thiophen-5-yl)methyl) phosphonic acid]"
3 to 30 µM,0.1 to 1 µM,"C/C1=C/[C@H]2CC[C@@H](C(=O)N3CC(c4cnccc4C)C3)N2C(=O)[C@@H](NC(=O)c2cc3cc(CP(=O)(O)O)ccc3s2)CC1 [Compound 644, ((2-(((3S,6S,10aR,Z)-9-methyl-3-(3-(4-methylpyridin-3-yl)azetidine-1-carbonyl)-5-oxo-1,2,3,5,6,7,8,10a-octahydropyrrolo[1,2-a]azocin-6-yl)carbamoyl)benzo [b]thiophen-5-yl)methyl) phosphonic acid]"
3 to 30 µM,1 to 10 µM,"Cc1cc(=O)[nH]cc1C1CN(C(=O)[C@@H]2CC[C@@H]3CCC[C@H](NC(=O)c4cc5cc(CP(=O)(O)O)ccc5s4)C(=O)N32)C1 [Compound 646, ((2-(((3S,6S,9aS)-3-(3-(4-methyl-6-oxo-1,6-dihydropyridin-3-yl)azetidine-1-carbonyl)-5-oxooctahydro-1H-pyrrolo[1,2-a]azepin-6-yl)carbamoyl)benzo [b]thiophen-5-yl)methyl) phosphonic acid]"
3 to 30 µM,< 0.1 µM,"Cc1nccnc1C1CN(C(=O)[C@@H]2CC[C@@H]3CCC[C@H](NC(=O)c4cc5cc(C(F)(F)P(=O)(O)O)ccc5s4)C(=O)N32)C1 [Compound 648, (difluoro(2-(((3S,6S,9aS)-3-(3-(3-methylpyrazin-2-yl)azetidine-1-carbonyl)-5-oxooctahydro-1H-pyrrolo[1,2-a]azepin-6-yl)carbamoyl)benzo [b]thiophen-5-yl)methyl) phosphonic acid]"
3 to 30 µM,1 to 10 µM,"Cc1cncnc1C1CN(C(=O)[C@@H]2CC[C@@H]3CCC[C@H](NC(=O)c4cc5cc(CP(=O)(O)O)ccc5s4)C(=O)N32)C1 [Compound 650, ((2-(((3S,6S,9aS)-3-(3-(5-methylpyrimidin-4-yl)azetidine-1-carbonyl)-5-oxooctahydro-1H-pyrrolo[1,2-a]azepin-6-yl)carbamoyl)benzo [b]thiophen-5-yl)methyl) phosphonic acid]"

# The next lines start with the compound.
SMILES,IC50 [1],IC50 [2]
"C[C@H]1C[C@H]2CC[C@@H](C(=O)N3CC(c4cnccc4N(C)C)C3)N2C(=O)[C@@H](NC(=O)c2cc3cc(CP(=O)(O)O)ccc3s2)C1 [Compound 638, ((2-(((3S,6S,8R,9aR)-3-(3-(4-(dimethylamino)pyridin-3-yl)azetidine-1-carbonyl)-8-methyl-5-oxooctahydro-1H-pyrrolo[1,2-a]azepin-6-yl)carbamoyl)benzo [b]thiophen-5-yl)methyl) phosphonic acid]",3 to 30 µM,< 0.1 µM
"O=C(N[C@H]1CCCC[C@H]2CC[C@@H](C(=O)NCc3cnc4[nH]cnc4c3)N2C1=O)c1cc2cc(CP(=O)(O)O)ccc2s1 [Compound 640, ((2-(((3S,6S,10aS)-3-(((3H-imidazo[4,5-b]pyridin-6-yl)methyl)carbamoyl)-5-oxodecahydropyrrolo [1,2-a]azocin-6-yl)carbamoyl)benzo [b]thiophen-5-yl)methyl) phosphonic acid]",3 to 30 µM,0.1 to 1 µM
"C/C1=C/[C@H]2CC[C@@H](C(=O)N3CC(c4cnccc4C)C3)N2C(=O)[C@@H](NC(=O)c2cc3cc(C(F)(F)P(=O)(O)O)ccc3s2)CC1 [Compound 643, (difluoro(2-(((3S,6S,10aR,Z)-9-methyl-3-(3-(4-methylpyridin-3-yl)azetidine-1-carbonyl)-5-oxo-1,2,3,5,6,7,8,10a-octahydropyrrolo[1,2-a]azocin-6-yl)carbamoyl)benzo [b]thiophen-5-yl)methyl) phosphonic acid]",0.3 to 3 µM,< 0.1 µM
"O=C(N[C@H]1CCCC[C@H]2CC[C@@H](C(=O)NC(CO)c3c[nH]c4ncccc34)N2C1=O)c1cc2cc(C(F)(F)P(=O)(O)O)ccc2s1 (stereo partly drawn) [Compound 645, (difluoro(2-(((3S,6S,10aS)-3-((2-hydroxy-1-(1H-pyrrolo[2,3-b]pyridin-3-yl)ethyl)carbamoyl)-5-oxodecahydropyrrolo [1,2-a]azocin-6-yl)carbamoyl)benzo [b]thiophen-5-yl)methyl) phosphonic acid]",3 to 30 µM,0.1 to 1 µM
"Cc1ccncc1C1CN(C(=O)[C@@H]2CC[C@@H]3CCCC[C@H](NC(=O)c4cc5cc(CP(=O)(O)O)ccc5s4)C(=O)N32)C1 [Compound 647, ((2-(((3S,6S,10aS)-3-(3-(4-methylpyridin-3-yl)azetidine-1-carbonyl)-5-oxodecahydropyrrolo [1,2-a]azocin-6-yl)carbamoyl)benzo [b]thiophen-5-yl)methyl) phosphonic acid]",3 to 30 µM,0.1 to 1 µM
"Cc1nccnc1C1CN(C(=O)[C@@H]2CC[C@@H]3CCC[C@H](NC(=O)c4cc5cc(CP(=O)(O)O)ccc5s4)C(=O)N32)C1 [Compound 649, ((2-(((3S,6S,9aS)-3-(3-(3-methylpyrazin-2-yl)azetidine-1-carbonyl)-5-oxooctahydro-1H-pyrrolo[1,2-a]azepin-6-yl)carbamoyl)benzo [b]thiophen-5-yl)methyl) phosphonic acid]",3 to 30 µM,1 to 10 µM
